# System: ‘PVL02’ rice
# Assay: Herbicide tolerance of rice cultivar 'PVL02'
# Type: in vivo, Oryza sativa
# Conditions: rice variety ‘PVL02’ carrying plastidic ACCase I1781(Am)L; rate not given
# Source text: ‘PVL02’ is an early maturing, long-grain rice variety that is tolerant to ACCase herbicides. For example, ‘PVL02’ is tolerant to Quizalofop-P-ethyl, the generic name for ethyl (R)-2-[4-(6-chloroquinoxalin-2-yl) oxy)phenoxy]propionate, which is sold under the tradename Provisia™ herbicide. PVL02 has excellent milling potential, very low chalk, and a grain length-width ratio of 2.8. ‘PVL02’ was developed using a pedigree selection system at the Louisiana State University Agricultural Center's H. Rouse Caffey Rice Research Station (HRCRRS) in Crowley, Louisiana ‘PVL02’ was selected from the cross Cheniere/BASF 1-5, a cross that was made at the HRCRRS in 2012. ‘Cheniere’ is a commercially-available cultivar. An earlier experimental designation for the ‘PVL02’ line was PVL-108.
# The ‘PVL02’ line was developed from the bulk of a single F3 line (14P2980) made at the Puerto Rico winter rice nursery in 2014. ‘PVL02’ was evaluated in a Provisia preliminary yield trial at the HRCRRS in 2014 and 2015, under the experimental designation 14PVL108, before being entered into the Louisiana statewide commercial/advanced yield testing program in 2016-2018.
smiles,measurement,value
CCOC(=O)[C@@H](C)Oc1ccc(Oc2cnc3cc(Cl)ccc3n2)cc1 [Quizalofop-P-ethyl],tolerance of the rice variety to the herbicide,tolerant

# Reference: patent US11871713B2, “Rice cultivar designated ‘PVL02’” (Board of Supervisors of Louisiana State University and …, priority 2019, dated 2024)
